Reference: article PMC4827093, “Proximal ADP-ribose Hydrolysis in Trypanosomatids is Catalyzed by a Macrodomain” (Scientific Reports, 2016)
Where two headings read alike, the source gives them in different places.

Legend:
[1] = biological target: T1, TcMDO (Trypanosoma cruzi MacroD-like protein) (Trypanosoma cruzi, UniProt Q4DQ03); test: isothermal titration calorimetry; format: binding
T1 construct: gene Tc00.1047053509179.20; full-length, codon-optimized synthetic cDNA, pNH-TrxT vector, E. coli BL21(DE3), fusion tags cut with TEV protease; crystal structure comprises residues 13-257
T1 sequence (Q4DQ03 1-267): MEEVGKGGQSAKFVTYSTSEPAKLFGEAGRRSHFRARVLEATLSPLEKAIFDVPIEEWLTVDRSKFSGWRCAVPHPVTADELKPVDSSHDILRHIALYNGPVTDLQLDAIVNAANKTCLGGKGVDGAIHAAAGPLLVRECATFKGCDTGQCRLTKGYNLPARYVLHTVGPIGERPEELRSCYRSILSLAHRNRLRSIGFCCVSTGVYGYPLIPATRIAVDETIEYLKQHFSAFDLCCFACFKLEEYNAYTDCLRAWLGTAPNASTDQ

[2] = biological target: T2, TbMDO (Trypanosoma brucei MacroD-like protein) (Trypanosoma brucei, UniProt C9ZP98); test: isothermal titration calorimetry; format: binding
T2 construct: gene TbgDal_V3640; full-length, codon-optimized synthetic cDNA, pNH-TrxT vector, E. coli BL21(DE3), fusion tags cut with TEV protease; crystal structures comprise residues 11-261
T2 sequence (C9ZP98 1-265): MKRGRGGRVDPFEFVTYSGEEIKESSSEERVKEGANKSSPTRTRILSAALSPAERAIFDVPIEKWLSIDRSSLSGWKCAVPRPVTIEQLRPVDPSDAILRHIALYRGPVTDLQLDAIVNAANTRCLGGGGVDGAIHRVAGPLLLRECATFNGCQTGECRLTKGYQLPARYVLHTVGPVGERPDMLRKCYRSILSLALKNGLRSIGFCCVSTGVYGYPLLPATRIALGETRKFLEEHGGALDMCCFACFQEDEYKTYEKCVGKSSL

[3] = biological target: T1, TcMDO (Trypanosoma cruzi MacroD-like protein); test: ESI-TOF mass spectrometry of hydrolysis products; format: biochemical; details: 0.5 mM 2′/3′-O-acetyl-ADP-ribose, 50 μM protein, 22 °C, 4 h; isomer mixture
[4] = biological target: T2, TbMDO (Trypanosoma brucei MacroD-like protein); test: ESI-TOF mass spectrometry of hydrolysis products; format: biochemical; details: 0.5 mM 2′/3′-O-acetyl-ADP-ribose, 50 μM protein, 22 °C, 4 h; isomer mixture
[5] = pH 7.5, 50 mM HEPES, 250 mM NaCl, 0.5 mM TCEP, 25 °C, three titrations, same data as the Ka row, read-out: affinities

In the case of `Nc1ncnc2c1ncn2[C@@H]1O[C@H](COP(=O)(O)OP(=O)(O)OC[C@H]2OC(O)[C@H](O)[C@@H]2O)[C@@H](O)[C@H]1O` (some centres unmarked) [ADP-ribose], the Kd [1, 5] is reported as 0.2 µM and the Kd [2, 5] is reported as 1.3 µM.
`Nc1ncnc2c1ncn2[C@@H]1O[C@H](COP(=O)(O)OP(=O)(O)O)[C@@H](O)[C@H]1O` [ADP] gave a Kd ([1]; read-out: K (converted)) of 820 µM, a Kd ([1]; read-out: KD) of 800 µM and a Kd ([2]; read-out: K (converted)) of 1850 µM. The Kd ([2]; read-out: KD) was 1900 µM.
In the case of `CC(=O)O[C@H]1C(O)O[C@H](COP(=O)(O)OP(=O)(O)OC[C@H]2O[C@@H](n3cnc4c(N)ncnc43)[C@H](O)[C@@H]2O)[C@H]1O` (some centres unmarked) [O-acetyl-ADP-ribose], the “ESI-TOF mass spectrometry of hydrolysis products” value [3] is reported as “Incubation of O-acetyl-ADP-ribose with both proteins resulted in the decrease of the mass” and the “ESI-TOF mass spectrometry of hydrolysis products” value [4] is reported as “Incubation of O-acetyl-ADP-ribose with both proteins resulted in the decrease of the mass”.
